We go through 2 molecules from the NIST ThermoML archive (doi:10.1021/je900709n).

Broadly, the viscosity is the internal friction of a fluid under shear. What is called mass density is mass per unit of volume.

± gives the expanded uncertainty stated by the source.

Data set [1] is described as follows: φn = volume fraction of the nth substance listed. The following applies: 101 kPa, Liquid; for viscosity: Capillary tube (Ostwald / Ubbelohde) method; for mass density: Pycnometric method.
The conditions of data set [2]: Liquid.

With `C1COCO1` [1,3-dioxolane] + O, the viscosity stood at 0.9716 ± 0.19 mPa·s in data set [1] (298.15 K, φ2 = 0.3); 1.357 ± 0.27 mPa·s in data set [1] (298.15 K, φ2 = 0.6); 0.9415 ± 0.19 mPa·s in data set [1] (298.15 K, φ2 = 0.9); 0.9314 ± 0.19 mPa·s in data set [1] (308.15 K, φ2 = 0.3); 1.133 ± 0.23 mPa·s in data set [1] (308.15 K, φ2 = 0.6); 0.822 ± 0.16 mPa·s in data set [1] (308.15 K, φ2 = 0.9). In addition, the mass density in data set [1] (298.15 K, φ2 = 0.3) was found to be 1049.2 ± 6 kg/m3; in data set [1] (298.15 K, φ2 = 0.6), 1039.1 ± 6 kg/m3; in data set [1] (298.15 K, φ2 = 0.9) it was 1009.2 ± 6 kg/m3; in data set [1] (308.15 K, φ2 = 0.3) it was 1041.1 ± 6 kg/m3; in data set [1] (308.15 K, φ2 = 0.6), 1030.7 ± 6 kg/m3; in data set [1] (308.15 K, φ2 = 0.9), 1003.3 ± 6 kg/m3.

As to `C1COCO1` [1,3-dioxolane], the viscosity in data set [2] (298.15 K, 101.33 kPa, Capillary tube (Ostwald / Ubbelohde) method) is 0.575 ± 0.012 mPa·s. The mass density in data set [2] (298.15 K, 101.33 kPa, Pycnometric method) was found to be 1058.6 ± 1.2 kg/m3. In addition, the Normal boiling temperature in data set [2] (Distillation) stood at 75 ± 1 °C.
